# Measured values as given in patent US7109186B2 (Bristol-Myers Squibb Company, priority 2002, dated 2006).
# Molecular target: T1, HIV-integrase (Human immunodeficiency virus type 1 group M subtype B, UniProt P04585)
# T1 construct: 0.26 ng of recombinant integrase was incubated with the beads for 90 min at 37 C
# Test: HIV integrase SPA integration assay (biotin-labeled substrate DNA on streptavidin SPA beads, P33-labeled target DNA)
# Format: biochemical
# Settings: percent inhibition of HIV-integrase in the presence of 20 μM of compound
# Experimental: For each reaction, 5 pmole of biotin labeled substrate DNA was bound to 100 ug of Streptavidin coated PVT SPA beads (Amersham Pharmacia Biotech). 0.26 ng of recombinant integrase was incubated with the beads for 90 min at 37 C. Unbound enzyme was removed by washing the complex followed by addition of inhibitors and 0.1 fmol of P33 labeled target DNA. Reaction was stopped by adding EDTA to a final concentration of 10 mM. Samples were counted in TopCountNXT (Packard) and the CPM was used as a measure of integration. Reaction condition was as described in A. Engelman and R. Craigie, J. Virol. 69, 5908–5911 (1995). The sequences of substrate and target DNA were described in Nucleic Acid Research 22, 1121–1122 (1994).
row,Structure (SMILES),inhibition at 20 µM [%]
1,"CN1CC(C(=O)N(C)Cc2ccccc2)=C(O)C1=O [Compound 79, 4-Hydroxy-1-methyl-5-oxo-2,5-dihydro-1H-pyrrole-3-carboxylic acid benzyl-methyl-amide]",92.4
2,"CN(Cc1ccc(Cl)c(Cl)c1)C(=O)C1=C(O)C(=O)N(C(CC(N)=O)C(=O)O)C1 (centres unmarked) [Compound 25, 2-{4-[(3,4-Dichloro-benzyl)-methyl-carbamoyl]-3-hydroxy-2-oxo-2,5-dihydro-pyrrol-1-yl}-succinamic acid]",99.9
3,"CN(Cc1ccc(F)cc1)C(=O)C1=C(O)C(=O)N(CCc2ccccc2F)C1 [Compound 5, 1-[2-(2-Fluoro-phenyl)-ethyl]-4-hydroxy-5-oxo-2,5-dihydro-1H-pyrrole-3-carboxylic acid (4-fluoro-benzyl)-methyl-amide]",99.8
4,"CN(Cc1ccc(Cl)c(Cl)c1)C(=O)C1=C(O)C(=O)N(CCN2CCCCC2)C1 [Compound 26, 4-Hydroxy-5-oxo-1-(2-piperidin-1-yl-ethyl)-2,5-dihydro-1H-pyrrole-3-carboxylic acid (3,4-dichloro-benzyl)-methyl-amide]",99.9
5,"CN(Cc1ccc(Cl)c(Cl)c1)C(=O)C1=C(O)C(=O)N(CCP(=O)(O)O)C1 [Compound 23, (2-{4-[(3,4-Dichloro-benzyl)-methyl-carbamoyl]-3-hydroxy-2-oxo-2,5-dihydro-pyrrol-1-yl}-ethyl)-phosphonic acid]",99.9
6,"CNCCN1CC(C(=O)N(C)Cc2ccc(Cl)c(Cl)c2)=C(O)C1=O [Compound 15, 4-Hydroxy-1-(2-methylamino-ethyl)-5-oxo-2,5-dihydro-1H-pyrrole-3-carboxylic acid (3,4-dichloro-benzyl)-methyl-amide]",99.7
7,CC(=O)NCCN1CC(C(=O)N(C)Cc2ccc(Cl)c(Cl)c2)=C(O)C1=O [Compound 27],99.9
8,"CN(Cc1ccc(F)cc1)C(=O)C1=C(O)C(=O)N(CCCc2ccccc2)C1 [Compound 10, 4-Hydroxy-5-oxo-1-(3-phenyl-propyl)-2,5-dihydro-1H-pyrrole-3-carboxylic acid (4-fluoro-benzyl)-methyl-amide]",99.9
9,"CN(Cc1ccc(F)cc1)C(=O)C1=C(O)C(=O)N(CCc2ccccc2)C1 [Compound 8, 4-Hydroxy-5-oxo-1-phenethyl-2,5-dihydro-1H-pyrrole-3-carboxylic acid (4-fluoro-benzyl)-methyl-amide]",99.9
10,"CN(Cc1ccc(Cl)c(Cl)c1)C(=O)C1=C(O)C(=O)N(CC(C)(C)C)C1 [Compound 16, 1-(2,2-Dimethyl-propyl)-4-hydroxy-5-oxo-2,5-dihydro-1H-pyrrole-3-carboxylic acid (3,4-dichloro-benzyl)-methyl-amide]",99.9
11,"CCOP(=O)(CCN1CC(C(=O)N(C)Cc2ccc(Cl)c(Cl)c2)=C(O)C1=O)OCC [Compound 23-A, (2-[4-[(3,4-Dichloro-benzyl)-methyl-carbamoyl]-3-hydroxy-2-oxo-2,5-dihydro-pyrrol-1-yl]-ethyl)-phosphonic acid diethyl ester]",99.9
12,"CN1CC(C(=O)N(Cc2ccc(F)cc2)Cc2ccc(F)cc2)=C(O)C1=O [Compound 76, 4-Hydroxy-1-methyl-5-oxo-2,5-dihydro-1H-pyrrole-3-carboxylic acid bis-(4-fluoro-benzyl)-amide]",96
13,"CN(Cc1ccc(Cl)c(Cl)c1)C(=O)C1=C(O)C(=O)N(CCN2CCOCC2)C1 [Compound 13, 4-Hydroxy-1-(2-morpholin-4-yl-ethyl)-5-oxo-2,5-dihydro-1H-pyrrole-3-carboxylic acid (3,4-dichloro-benzyl)-methyl-amide]",99.9
14,"CN(Cc1ccc(F)cc1)C(=O)C1=C(O)C(=O)N(CCc2ccc(Cl)cc2)C1 [Compound 2, 1-[2-(4-Chloro-phenyl)ethyl]-4-hydroxy-5-oxo-2,5-dihydro-1H-pyrrole-3-carboxylic acid (4-fluoro-benzyl)-methyl amide]",99.9
15,"CN(Cc1ccc(Cl)c(Cl)c1)C(=O)C1=C(O)C(=O)N(CCCCCCC(=O)O)C1 [Compound 28, 7-{4-[(3,4-dichloro-benzyl)-methyl-carbamoyl]-3-hydroxy-2-oxo-2,5-dihydro-pyrrol-1-yl}-heptanoic acid]",99.9
16,CN(Cc1ccc(Cl)c(Cl)c1)C(=O)C1=C(O)C(=O)N(Cc2cccs2)C1 [Compound 31],99.9
17,"CN(Cc1ccc(F)cc1)C(=O)C1=C(O)C(=O)N(CCc2ccc(F)cc2)C1 [Compound 9, 1-[2-(4-Fluoro-phenyl)-ethyl]-4-hydroxy-5-oxo-2,5-dihydro-1H-pyrrole-3-carboxylic acid (4-fluoro-benzyl)-methyl amide]",99.9
18,COC(=O)CCCN1CC(C(=O)N(C)Cc2ccc(Cl)c(Cl)c2)=C(O)C1=O [Compound 33],99.9
19,"COC(=O)CCN1CC(C(=O)N(C)Cc2ccc(Cl)c(Cl)c2)=C(O)C1=O [Compound 34, 3-{4-[(3,4-Dichloro-benzyl)-methyl-carbamoyl]-3-hydroxy-2-oxo-2,5-dihydro-pyrrol-1-yl}-propionic acid methyl ester]",99.9
20,"CON(Cc1ccc(C(=O)OC(C)(C)C)cc1)C(=O)C1=C(O)C(=O)N(C)C1 [Compound 68-A, 4-{[(4-Hydroxy-1-methyl-5-oxo-2,5-dihydro-1H-pyrrole-3-carbonyl)-methoxy-amino]-methyl}-benzoic acid tert-butyl ester]",4.5
21,"CN(Cc1ccc(Cl)c(Cl)c1)C(=O)C1=C(O)C(=O)N(CCC#N)C1 [Compound 42, 1-(2-Cyano-ethyl)-4-hydroxy-5-oxo-2,5-dihydro-1H-pyrrole-3carboxylic acid (3,4-dichloro-benzyl)-methyl-amide]",99.9
22,"CN(Cc1ccc(F)cc1)C(=O)C1=C(O)C(=O)N(CCc2ccc(Cl)cc2Cl)C1 [Compound 6, 1-[2-(2,4-Dichloro-phenyl)-ethyl]-4-hydroxy-5-oxo-2,5-dihydro-1H-pyrrole-3-carboxylic acid (4-fluoro-benzyl)-methyl-amide]",99.9
23,"CN(Cc1ccc(F)cc1)C(=O)C1=C(O)C(=O)N(CCc2cccs2)C1 [Compound 4, 4-Hydroxy-5-oxo-1-(2-thiophen-2-yl-ethyl)-2,5-dihydro-1H-pyrrole-3-carboxylic acid (4-fluoro-benzyl)-methyl-amide]",99.9
24,"CN(Cc1ccc(Cl)c(Cl)c1)C(=O)C1=C(O)C(=O)N(CCCN2CCOCC2)C1 [Compound 43, 4-Hydroxy-1-(3-morpholin-4-yl-propyl)-5-oxo-2,5-dihydro-1H-pyrrole-3-carboxylic acid (3,4-dichloro-benzyl)-methyl-amide]",99.9
25,"CON(Cc1ccc(F)cc1F)C(=O)C1=C(O)C(=O)N(C)C1 [Compound 60, 4-Hydroxy-1-methyl-5-oxo-2,5-dihydro-1H-pyrrole-3-carboxylic acid (2,4-difluoro-benzyl)-methoxy-amide]",99.7
26,"CON(Cc1ccccc1OC(C)C)C(=O)C1=C(O)C(=O)N(C)C1 [Compound 66, 4-Hydroxy-1-methyl-5-oxo-2,5-dihydro-1H-pyrrole-3-carboxylic acid (2-isopropoxy)-methoxy-amide]",99
